Data reported in US20080003691A1, “Method of Detecting Conformational Change of an Amyloid Protein, a Method of Searching a Substance Having an Activity that Affects to Conformational Change of an Amyloid Protein, and Method of Searching a Therapeutic or Diagnostic Agent for Amyloid-Related Diseases” (Fuence Co., Ltd., priority 2004, published 2008).

Tests used:
[1] = target: T1, amyloid β (1-42) (Homo sapiens, UniProt P05067); experiment: changes in tension and elasticity of amyloid β (1-42) film measured with a mechanochemical sensor; assay type: biochemical
T1 construct: Amyloid β (1-42) (Bachem AG, Budendorf, Switzerland); purchased Bachem AG
Experimental: (§1) Amyloid β (1-42) (Bachem AG, Budendorf, Switzerland) was dissolved in 0.1% ammonia water at the concentration of 1 mg/mL. This solution was sprayed under dry air using an electrospry device described in WO 2002-511792 or an immobilzing device described in Japanese Patent Publication No. 2003-136005. The solution was permeated through a mask with holes of 400 μm in length and 800 μm in width, and then a film having 1 μm thickness was prepared on 1.2% polyvinyl pyrrolidone, using an electrospray method (the EDS method). Then protein was cross-linked by glutaraldehyde.
(§2) The resulting film was placed on an apparatus having a mechanochemical sensor which was described in WO 2002-503332 or U.S. Patent Publication No. 6033913, and it was immersed into 10 mM Hepes pH7.4 buffer solution (hereinafter referred to as “the buffer solution”) containing 0.15 M NaCl. The buffer solution was passed through the film existing on the detecting apparatus at the flow rate of 0.1 to 0.2 mL/min, in order to stabilize the tension of the sample film. Thereafter ZnCl2 solution dissolved in said buffer solution was passed through to detect changes in tension and elasticity (FIG. 1).
In FIG. 1, a place where the line uprises from the horizontal state (i.e. steady state), means a point where tension is given to the sample film, and compliance is detected where the line oscillates. […] It is assumed that the particular interaction referred herein is aggregation of amyloid β (1-42) caused by Zn^2+, when considered with many reports such as X. Huang et. al., (J. Biol. Chem., 1997, 272, 26464), C. S. Atwood et. al., (J. Biol. Chem., 1998, 273, 12817), or R. A. Cherny et. al., (Neuron, 2001, 30, 665).
Further, concentration of ZnCl2 was altered from 0.01 mM to 3 mM, in order to examine the effect of ZnCl2 concentration (FIG. 2).
An amyloid β (1-42) membrane was prepared and placed on a detecting apparatus, as described in EXAMPLE 1. The changes in tension and elasticity of the membrane, by CuCl2 dissolved in the buffer solution, were examined (FIG. 3). […] It has been reported that Cu^2+, as well as Zn^2+, facilitates aggregation of amyloid β.

[2] = target: T2, α-synuclein (Homo sapiens, UniProt P37840); experiment: changes in tension and elasticity of α-synuclein film measured with a mechanochemical sensor; assay type: biochemical; conditions: FIG. 4
T2 construct: purchased BIOMOL International LP
Experimental: as §1, §2
A α-synuclein (BIOMOL International LP, PA, USA) film was prepared and placed on a detecting apparatus, as described in EXAMPLE 1. […]

T1 sequence (P05067 672-713): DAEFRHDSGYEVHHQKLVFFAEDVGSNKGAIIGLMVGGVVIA

## [Cl][Cu][Cl] [CuCl2]
[1]; CuCl2 dissolved in the buffer solution, FIG. 3
  change in tension and elasticity of the amyloid β (1-42) membrane by CuCl2: concentration-dependent change

## O=C(O)CN(CCN(CC(=O)O)CC(=O)O)CC(=O)O [EDTA]
[1]; amyloid β (1-42) film previously exposed to ZnCl2, FIG. 1
  tension and elasticity of the film after EDTA, relative to the state prior to addition of ZnCl2: restored
[1]; amyloid β (1-42) membrane previously exposed to CuCl2, FIG. 3
  tension after EDTA, relative to the state prior to addition of CuCl2: restored by EDTA almost to the state prior to addition of CuCl2
[2]; α-synuclein film previously exposed to ZnCl2
  tension after EDTA, relative to the state prior to addition of ZnCl2: restored by EDTA almost to the state prior to addition of ZnCl2

## [Cl-].[Cl-].[Zn+2] [ZnCl2]
[1]; ZnCl2 0.01 mM to 3 mM, FIG. 2
  change in elasticity with respect to ZnCl2 concentration: concentration-dependent
[1]; ZnCl2 solution in 10 mM Hepes pH7.4, 0.15 M NaCl passed over the film, FIG. 1
  isotropic tension and compliance (the inverse of stiffness) of the amyloid β (1-42) film: remarkably increased
[2]; ZnCl2 dissolved in the buffer solution
  change in tension and elasticity of the α-synuclein film by ZnCl2: concentration-dependent change
